From patent US7563864B2, “Prolyl endopeptidase mediated destruction of T cell epitopes in whole gluten” (Celiac Sprue Research Foundation, priority 2004, dated 2009)

How the values were obtained:
Type in all cases: cell-based, human
Settings in all cases: DQ2+ APC, 5 μM TG2-treated peptide, 3H thymidine incorporation
[1] = system: intestinal T cell line 502.1.2; test: T cell proliferation assay, polyclonal T cell line 502.1.2; set-up: key: −: no response; Stimulatory index (SI; T + APC + TG2-treated peptide divided by T + APC) of 3-10; ++: SI above 10
Text: (§1) T cell assays—The generation of polyclonal gluten-specific T cell lines derived from ex vivo gluten challenged small intestinal biopsy specimens of adult Celiac Sprue patients have been described elsewhere. For this study 14 different intestinal T cell lines derived from 13 DQ2+celiac patients were selected based on two basic criteria; effective recognition of TG2-treated digests of gluten and significant responses to at least two different gluten epitopes (Table 2). The generation of intestinal T cell clones and the epitope specificity of these clones, except TCC 387.3, has been described elsewhere (10). The TCC 387.3 recognizes a TG2-dependent epitope, defined as γ-VI that is contained within residues 62-72 (PQQPFPQQPQQ) of recombinant γ-5 gliadin. The freeze-dried, proteolyzed gluten samples were dissolved in PBS with 2 mM CaCl2 and treated with 150 μg/ml human recombinant TG2 (14) or, in some experiments 200 μg/ml guinea pig transglutaminase (Sigma T-5398), for 2 hours at 37° C. The TG2-treated samples were incubated overnight in triplicates on U-bottomed 96 well plates with 75 000 cells per well of DQ2 homozygous, irradiated (75 Gy) EBV-transformed B-lymphoblastoid cell lines in a volume of 100 μl 15% pooled, inactivated human serum and RPMI1640. After the incubation 50 μl of freshly thawed T cells (1×10^6 cells/ml) were added to each well. The proliferation in the wells was evaluated by ^3H thymidine incorporation from 48-72 hours after the addition of the T cells.

[2] = system: intestinal T cell line 437.1.1; test: T cell proliferation assay, polyclonal T cell line 437.1.1; set-up: key: −: no response; Stimulatory index (SI; T + APC + TG2-treated peptide divided by T + APC) of 3-10; ++: SI above 10
Text: as §1

[3] = system: intestinal T cell line 494.1.1; test: T cell proliferation assay, polyclonal T cell line 494.1.1; set-up: key: −: no response; Stimulatory index (SI; T + APC + TG2-treated peptide divided by T + APC) of 3-10; ++: SI above 10
Text: as §1

[4] = system: intestinal T cell line 482.1.4; test: T cell proliferation assay, polyclonal T cell line 482.1.4; set-up: key: −: no response; Stimulatory index (SI; T + APC + TG2-treated peptide divided by T + APC) of 3-10; ++: SI above 10
Text: as §1

[5] = system: intestinal T cell line 446.1.3; test: T cell proliferation assay, polyclonal T cell line 446.1.3; set-up: key: −: no response; Stimulatory index (SI; T + APC + TG2-treated peptide divided by T + APC) of 3-10; ++: SI above 10
Text: as §1

[6] = system: intestinal T cell line 432.2.1; test: T cell proliferation assay, polyclonal T cell line 432.2.1; set-up: key: −: no response; Stimulatory index (SI; T + APC + TG2-treated peptide divided by T + APC) of 3-10; ++: SI above 10
Text: as §1

[7] = system: intestinal T cell line 451.1.1; test: T cell proliferation assay, polyclonal T cell line 451.1.1; set-up: key: −: no response; Stimulatory index (SI; T + APC + TG2-treated peptide divided by T + APC) of 3-10; ++: SI above 10
Text: as §1

[8] = system: intestinal T cell line 488.3.1; test: T cell proliferation assay, polyclonal T cell line 488.3.1; set-up: key: −: no response; Stimulatory index (SI; T + APC + TG2-treated peptide divided by T + APC) of 3-10; ++: SI above 10
Text: as §1

[9] = system: intestinal T cell line 421.1.4; test: T cell proliferation assay, polyclonal T cell line 421.1.4; set-up: key: −: no response; Stimulatory index (SI; T + APC + TG2-treated peptide divided by T + APC) of 3-10; ++: SI above 10
Text: as §1

[10] = system: intestinal T cell line 422.4.2; test: T cell proliferation assay, polyclonal T cell line 422.4.2; set-up: key: −: no response; Stimulatory index (SI; T + APC + TG2-treated peptide divided by T + APC) of 3-10; ++: SI above 10
Text: as §1

[11] = system: intestinal T cell line 491.1.3; test: T cell proliferation assay, polyclonal T cell line 491.1.3; set-up: key: −: no response; Stimulatory index (SI; T + APC + TG2-treated peptide divided by T + APC) of 3-10; ++: SI above 10
Text: as §1

[12] = system: intestinal T cell line 437.1.3; test: T cell proliferation assay, polyclonal T cell line 437.1.3; set-up: key: −: no response; Stimulatory index (SI; T + APC + TG2-treated peptide divided by T + APC) of 3-10; ++: SI above 10
Text: as §1

[13] = system: intestinal T cell line 461.1.4; test: T cell proliferation assay, polyclonal T cell line 461.1.4; set-up: key: −: no response; Stimulatory index (SI; T + APC + TG2-treated peptide divided by T + APC) of 3-10; ++: SI above 10
Text: as §1

[14] = system: intestinal T cell line 496.1.2; test: T cell proliferation assay, polyclonal T cell line 496.1.2
Text: as §1

Sequence: GIIQPQQPAQL [γ-II]
- Response to TG2-treated gluten peptides (stimulatory index) [1]: −
- Response to TG2-treated gluten peptides (stimulatory index) [2]: −
- Response to TG2-treated gluten peptides (stimulatory index) [3]: −
- Response to TG2-treated gluten peptides (stimulatory index) [4]: −
- Response to TG2-treated gluten peptides (stimulatory index) [5]: ++ (SI above 10)
- Response to TG2-treated gluten peptides (stimulatory index) [6]: −
- Response to TG2-treated gluten peptides (stimulatory index) [7]: ++ (SI above 10)
- Response to TG2-treated gluten peptides (stimulatory index) [8]: −
- Response to TG2-treated gluten peptides (stimulatory index) [9]: + (Stimulatory index (SI; T + APC + TG2-treated peptide divided by T + APC) of 3-10)
- Response to TG2-treated gluten peptides (stimulatory index) [10]: −
- Response to TG2-treated gluten peptides (stimulatory index) [11]: −
- Response to TG2-treated gluten peptides (stimulatory index) [12]: −
- Response to TG2-treated gluten peptides (stimulatory index) [13]: −
- Response to TG2-treated gluten peptides (stimulatory index) [14]: ++ (SI above 10)

Sequence: LQLQPFPQPQLPYPQPQLPYPQPQLPYPQPQPF [αG-33]
- Response to TG2-treated gluten peptides (stimulatory index) [1]: ++ (SI above 10)
- Response to TG2-treated gluten peptides (stimulatory index) [2]: ++ (SI above 10)
- Response to TG2-treated gluten peptides (stimulatory index) [3]: ++ (SI above 10)
- Response to TG2-treated gluten peptides (stimulatory index) [4]: ++ (SI above 10)
- Response to TG2-treated gluten peptides (stimulatory index) [5]: ++ (SI above 10)
- Response to TG2-treated gluten peptides (stimulatory index) [6]: ++ (SI above 10)
- Response to TG2-treated gluten peptides (stimulatory index) [7]: ++ (SI above 10)
- Response to TG2-treated gluten peptides (stimulatory index) [8]: ++ (SI above 10)
- Response to TG2-treated gluten peptides (stimulatory index) [9]: ++ (SI above 10)
- Response to TG2-treated gluten peptides (stimulatory index) [10]: ++ (SI above 10)
- Response to TG2-treated gluten peptides (stimulatory index) [11]: ++ (SI above 10)
- Response to TG2-treated gluten peptides (stimulatory index) [12]: ++ (SI above 10)
- Response to TG2-treated gluten peptides (stimulatory index) [13]: + (Stimulatory index (SI; T + APC + TG2-treated peptide divided by T + APC) of 3-10)
- Response to TG2-treated gluten peptides (stimulatory index) [14]: ++ (SI above 10)

Sequence: LQPQQPFPQQPQQPYPQQPQ [γ-III and γ-VI]
- Response to TG2-treated gluten peptides (stimulatory index) [1]: + (Stimulatory index (SI; T + APC + TG2-treated peptide divided by T + APC) of 3-10)
- Response to TG2-treated gluten peptides (stimulatory index) [2]: −
- Response to TG2-treated gluten peptides (stimulatory index) [3]: ++ (SI above 10)
- Response to TG2-treated gluten peptides (stimulatory index) [4]: −
- Response to TG2-treated gluten peptides (stimulatory index) [5]: −
- Response to TG2-treated gluten peptides (stimulatory index) [6]: −
- Response to TG2-treated gluten peptides (stimulatory index) [7]: −
- Response to TG2-treated gluten peptides (stimulatory index) [8]: + (Stimulatory index (SI; T + APC + TG2-treated peptide divided by T + APC) of 3-10)
- Response to TG2-treated gluten peptides (stimulatory index) [9]: + (Stimulatory index (SI; T + APC + TG2-treated peptide divided by T + APC) of 3-10)
- Response to TG2-treated gluten peptides (stimulatory index) [10]: −
- Response to TG2-treated gluten peptides (stimulatory index) [11]: −
- Response to TG2-treated gluten peptides (stimulatory index) [12]: −
- Response to TG2-treated gluten peptides (stimulatory index) [13]: + (Stimulatory index (SI; T + APC + TG2-treated peptide divided by T + APC) of 3-10)
- Response to TG2-treated gluten peptides (stimulatory index) [14]: + (Stimulatory index (SI; T + APC + TG2-treated peptide divided by T + APC) of 3-10)

Sequence: PQPQLPYPQPQLPY [α-II]
- Response to TG2-treated gluten peptides (stimulatory index) [1]: + (Stimulatory index (SI; T + APC + TG2-treated peptide divided by T + APC) of 3-10)
- Response to TG2-treated gluten peptides (stimulatory index) [2]: + (Stimulatory index (SI; T + APC + TG2-treated peptide divided by T + APC) of 3-10)
- Response to TG2-treated gluten peptides (stimulatory index) [3]: ++ (SI above 10)
- Response to TG2-treated gluten peptides (stimulatory index) [4]: + (Stimulatory index (SI; T + APC + TG2-treated peptide divided by T + APC) of 3-10)
- Response to TG2-treated gluten peptides (stimulatory index) [5]: ++ (SI above 10)
- Response to TG2-treated gluten peptides (stimulatory index) [6]: ++ (SI above 10)
- Response to TG2-treated gluten peptides (stimulatory index) [7]: + (Stimulatory index (SI; T + APC + TG2-treated peptide divided by T + APC) of 3-10)
- Response to TG2-treated gluten peptides (stimulatory index) [8]: ++ (SI above 10)
- Response to TG2-treated gluten peptides (stimulatory index) [9]: + (Stimulatory index (SI; T + APC + TG2-treated peptide divided by T + APC) of 3-10)
- Response to TG2-treated gluten peptides (stimulatory index) [10]: ++ (SI above 10)
- Response to TG2-treated gluten peptides (stimulatory index) [11]: ++ (SI above 10)
- Response to TG2-treated gluten peptides (stimulatory index) [12]: + (Stimulatory index (SI; T + APC + TG2-treated peptide divided by T + APC) of 3-10)
- Response to TG2-treated gluten peptides (stimulatory index) [13]: + (Stimulatory index (SI; T + APC + TG2-treated peptide divided by T + APC) of 3-10)
- Response to TG2-treated gluten peptides (stimulatory index) [14]: + (Stimulatory index (SI; T + APC + TG2-treated peptide divided by T + APC) of 3-10)

Sequence: QLQPFPQPQLPY [α-I]
- Response to TG2-treated gluten peptides (stimulatory index) [1]: ++ (SI above 10)
- Response to TG2-treated gluten peptides (stimulatory index) [2]: −
- Response to TG2-treated gluten peptides (stimulatory index) [3]: + (Stimulatory index (SI; T + APC + TG2-treated peptide divided by T + APC) of 3-10)
- Response to TG2-treated gluten peptides (stimulatory index) [4]: −
- Response to TG2-treated gluten peptides (stimulatory index) [5]: + (Stimulatory index (SI; T + APC + TG2-treated peptide divided by T + APC) of 3-10)
- Response to TG2-treated gluten peptides (stimulatory index) [6]: −
- Response to TG2-treated gluten peptides (stimulatory index) [7]: −
- Response to TG2-treated gluten peptides (stimulatory index) [8]: + (Stimulatory index (SI; T + APC + TG2-treated peptide divided by T + APC) of 3-10)
- Response to TG2-treated gluten peptides (stimulatory index) [9]: −
- Response to TG2-treated gluten peptides (stimulatory index) [10]: + (Stimulatory index (SI; T + APC + TG2-treated peptide divided by T + APC) of 3-10)
- Response to TG2-treated gluten peptides (stimulatory index) [11]: + (Stimulatory index (SI; T + APC + TG2-treated peptide divided by T + APC) of 3-10)
- Response to TG2-treated gluten peptides (stimulatory index) [12]: + (Stimulatory index (SI; T + APC + TG2-treated peptide divided by T + APC) of 3-10)
- Response to TG2-treated gluten peptides (stimulatory index) [13]: −
- Response to TG2-treated gluten peptides (stimulatory index) [14]: ++ (SI above 10)
